Measurements as given in ChEMBL document CHEMBL1909046, “DrugMatrix in vitro pharmacology data”.

Columns and labels:
[1] = target: C-C chemokine receptor type 5 (Homo sapiens, UniProt P51681); format: cell membranes, Membrane; settings: hek293; note: in other assays of this panel Not Active means under 50% inhibition at 10 µM
[2] = target: Mitogen-activated protein kinase 1 (Homo sapiens, UniProt P28482); assay: DRUGMATRIX: Protein Serine/Threonine Kinase, ERK2 enzyme inhibition (substrate: Myelin Basic Protein); design: species or system Escherichia coli; settings: Not Active = under 50% inhibition at 10 µM
[3] = target: T1, Progesterone receptor (Bos taurus, UniProt Q690N0); assay: DRUGMATRIX: Progesterone radioligand binding (ligand: [3H] R-5020); format: tissue-based, Uterus; settings: Not Active = under 50% inhibition at 10 µM
T1 sequence (Q690N0 whole entry): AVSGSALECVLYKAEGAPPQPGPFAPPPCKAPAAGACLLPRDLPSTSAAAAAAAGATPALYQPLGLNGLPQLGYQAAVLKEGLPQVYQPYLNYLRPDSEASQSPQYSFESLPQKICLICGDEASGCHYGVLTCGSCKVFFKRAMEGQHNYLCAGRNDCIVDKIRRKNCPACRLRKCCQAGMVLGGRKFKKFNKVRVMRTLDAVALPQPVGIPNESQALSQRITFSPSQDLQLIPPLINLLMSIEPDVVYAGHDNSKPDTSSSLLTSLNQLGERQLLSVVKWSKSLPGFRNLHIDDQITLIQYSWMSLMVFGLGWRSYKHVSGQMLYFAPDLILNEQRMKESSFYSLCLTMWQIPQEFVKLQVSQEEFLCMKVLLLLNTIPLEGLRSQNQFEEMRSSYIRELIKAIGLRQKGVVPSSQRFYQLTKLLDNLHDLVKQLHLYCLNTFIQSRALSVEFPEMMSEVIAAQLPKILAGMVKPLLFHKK

[4] = target: T2, Alpha-1B adrenergic receptor (Rattus norvegicus, UniProt P15823); assay: DRUGMATRIX: Alpha-1B adrenergic receptor radioligand binding (ligand: prazosin); format: cell membranes, Wistar, Liver, Membrane; settings: Not Active = under 50% inhibition at 10 µM
T2 sequence (P15823 whole entry): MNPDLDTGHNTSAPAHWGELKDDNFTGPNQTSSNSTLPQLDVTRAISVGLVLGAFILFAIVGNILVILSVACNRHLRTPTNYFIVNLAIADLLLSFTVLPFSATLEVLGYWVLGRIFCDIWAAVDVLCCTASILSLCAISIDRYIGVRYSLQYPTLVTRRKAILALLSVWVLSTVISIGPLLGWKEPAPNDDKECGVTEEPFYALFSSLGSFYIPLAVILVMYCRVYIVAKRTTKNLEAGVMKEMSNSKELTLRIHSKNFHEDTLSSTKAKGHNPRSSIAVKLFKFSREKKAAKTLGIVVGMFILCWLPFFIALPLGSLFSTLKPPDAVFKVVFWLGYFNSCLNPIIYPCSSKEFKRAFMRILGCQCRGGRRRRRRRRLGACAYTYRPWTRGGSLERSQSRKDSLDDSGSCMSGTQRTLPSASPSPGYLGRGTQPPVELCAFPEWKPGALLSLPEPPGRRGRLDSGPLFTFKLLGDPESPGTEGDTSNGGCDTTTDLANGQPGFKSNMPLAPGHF

[5] = DRUGMATRIX: Leukotriene, BLT (LTB4) radioligand binding (ligand: [3H]LTB4); format: cell membranes, Membrane; settings: u-937; Not Active = under 50% inhibition at 10 µM
[6] = target: Protein phosphatase 3 catalytic subunit alpha (Homo sapiens, UniProt Q08209); design: species or system Escherichia coli;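 note: inhibition of calcineurin (PP2B) enzyme activity, measured with DiFMUP as the substrate; in other assays of this panel Not Active means under 50% inhibition at 10 µM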
[7] = target: Cytochrome P450 3A4 (Homo sapiens, UniProt P08684); settings: bti-tn-5b1-4; note: in other assays of this panel Not Active means under 50% inhibition at 10 µM
Chain of Cytochrome P450 3A4 (P08684 whole entry): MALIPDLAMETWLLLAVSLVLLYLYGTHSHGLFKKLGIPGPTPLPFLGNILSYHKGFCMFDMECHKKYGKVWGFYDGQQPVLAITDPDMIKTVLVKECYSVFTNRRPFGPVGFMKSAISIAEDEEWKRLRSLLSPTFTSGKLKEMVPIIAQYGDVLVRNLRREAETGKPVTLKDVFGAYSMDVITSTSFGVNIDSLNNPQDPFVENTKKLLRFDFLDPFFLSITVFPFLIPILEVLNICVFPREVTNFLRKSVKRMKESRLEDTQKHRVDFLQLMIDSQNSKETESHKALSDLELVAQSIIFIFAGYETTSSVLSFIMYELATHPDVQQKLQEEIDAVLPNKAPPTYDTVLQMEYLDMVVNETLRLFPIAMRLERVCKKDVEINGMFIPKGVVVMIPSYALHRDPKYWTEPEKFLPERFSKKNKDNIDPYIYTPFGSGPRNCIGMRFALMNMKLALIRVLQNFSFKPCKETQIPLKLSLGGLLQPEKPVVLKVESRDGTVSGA

Chain of Mitogen-activated protein kinase 1 (P28482 whole entry): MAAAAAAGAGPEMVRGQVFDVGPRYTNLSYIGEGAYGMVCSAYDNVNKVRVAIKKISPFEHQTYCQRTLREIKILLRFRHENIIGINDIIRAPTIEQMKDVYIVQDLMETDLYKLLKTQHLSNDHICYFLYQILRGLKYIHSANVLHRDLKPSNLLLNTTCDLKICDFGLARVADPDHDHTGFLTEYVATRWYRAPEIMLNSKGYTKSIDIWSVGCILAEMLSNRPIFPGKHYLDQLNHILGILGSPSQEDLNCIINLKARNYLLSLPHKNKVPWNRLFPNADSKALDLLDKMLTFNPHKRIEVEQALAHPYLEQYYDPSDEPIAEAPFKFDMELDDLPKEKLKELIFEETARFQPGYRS
Chain of C-C chemokine receptor type 5 (P51681 whole entry): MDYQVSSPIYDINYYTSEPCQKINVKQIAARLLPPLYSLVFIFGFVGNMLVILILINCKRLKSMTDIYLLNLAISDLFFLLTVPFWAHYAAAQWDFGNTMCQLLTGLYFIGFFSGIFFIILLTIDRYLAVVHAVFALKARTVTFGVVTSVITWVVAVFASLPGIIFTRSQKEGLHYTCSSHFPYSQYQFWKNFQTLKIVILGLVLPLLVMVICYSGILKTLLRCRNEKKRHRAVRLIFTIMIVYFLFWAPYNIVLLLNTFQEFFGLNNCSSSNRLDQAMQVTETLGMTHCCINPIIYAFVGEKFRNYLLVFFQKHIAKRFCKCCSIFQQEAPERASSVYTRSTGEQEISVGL

O=C1Nc2ccc(Cl)cc2C(c2ccccc2Cl)=NC1O (configuration not stated) [LORAZEPAM]
Not Active: IC50 [1] | IC50 [2] | IC50 [3] | IC50 [4] | IC50 [5] | Ki [5] | IC50 [6] | IC50 [7] | Ki [7]

COc1c2occc2cc2ccc(=O)oc12 [METHOXSALEN]
Not Active: IC50 [1] | IC50 [2] | IC50 [3] | IC50 [4] | IC50 [5] | Ki [5] | IC50 [6] | IC50 [7] | Ki [7]

C[C@H]1C[C@@H]2[C@H]([C@@H](O)C[C@@]3(C)[C@H]2CC[C@]3(O)C(=O)CO)[C@@]2(C)C=CC(=O)C=C12 [METHYLPREDNISOLONE]
Not Active: IC50 [1] | IC50 [2] | IC50 [3] | IC50 [4] | IC50 [5] | Ki [5] | IC50 [6] | IC50 [7] | Ki [7]

Cc1cccc(C)c1OCC(C)N (configuration not stated) [MEXILETINE]
Not Active: IC50 [1] | IC50 [2] | IC50 [3] | IC50 [4] | IC50 [5] | Ki [5] | IC50 [6] | IC50 [7] | Ki [7]

Nc1cc(N2CCCCC2)nc(N)[n+]1[O-] [MINOXIDIL]
Not Active: IC50 [1] | IC50 [2] | IC50 [3] | IC50 [4] | IC50 [5] | Ki [5] | IC50 [6] | IC50 [7] | Ki [7]

CCCCOc1cc(CC2CNC(=O)N2)ccc1OC (configuration not stated) [RO-201724]
Not Active: IC50 [1] | IC50 [2] | IC50 [3] | IC50 [4] | IC50 [5] | Ki [5] | IC50 [6] | IC50 [7] | Ki [7]

CC[C@@H](C(=O)[C@@H](C)[C@@H](O)[C@H](C)[C@@H]1O[C@@H]([C@@H](CC)C(=O)O)CC[C@@H]1C)[C@H]1O[C@]2(C=C[C@@H](O)[C@]3(CC[C@@](C)([C@H]4CC[C@](O)(CC)[C@H](C)O4)O3)O2)[C@H](C)C[C@@H]1C [SALINOMYCIN]
Not Active: IC50 [1] | IC50 [2] | IC50 [3] | IC50 [4] | IC50 [5] | Ki [5] | IC50 [6] | IC50 [7] | Ki [7]

O=C(Oc1ccccc1C(=O)O)c1ccccc1O [SALSALATE]
Not Active: IC50 [1] | IC50 [2] | IC50 [3] | IC50 [4] | IC50 [5] | Ki [5] | IC50 [6] | IC50 [7] | Ki [7]

O=C(O)c1cn(-c2ccc(F)cc2)c2cc(N3CCNCC3)c(F)cc2c1=O [SARAFLOXACIN]
Not Active: IC50 [1] | IC50 [2] | IC50 [3] | IC50 [4] | IC50 [5] | Ki [5] | IC50 [6] | IC50 [7] | Ki [7]

CC(C)NCC(O)c1ccc(NS(C)(=O)=O)cc1 (configuration not stated) [SOTALOL]
Not Active: IC50 [1] | IC50 [2] | IC50 [3] | IC50 [4] | IC50 [5] | Ki [5] | IC50 [6] | IC50 [7] | Ki [7]

O.O.O.O.O.O.[Cl-].[Cl-].[Sr+2] [STRONTIUM CHLORIDE HEXAHYDRATE]
Not Active: IC50 [1] | IC50 [2] | IC50 [3] | IC50 [4] | IC50 [5] | Ki [5] | IC50 [6] | IC50 [7] | Ki [7]

O=C1C(CC[S+]([O-])c2ccccc2)C(=O)N(c2ccccc2)N1c1ccccc1 (configuration not stated) [SULFINPYRAZONE]
Not Active: IC50 [1] | IC50 [2] | IC50 [3] | IC50 [4] | IC50 [5] | Ki [5] | IC50 [6] | IC50 [7] | Ki [7]

NC(=O)N1C(=O)/C(=C(\O)c2cccs2)c2cc(Cl)ccc21 [TENIDAP]
Not Active: IC50 [1] | IC50 [2] | IC50 [3] | IC50 [4] | IC50 [5] | Ki [5] | IC50 [6] | IC50 [7] | Ki [7]

Cn1c(=O)c2nc[nH]c2n(C)c1=O.O [THEOPHYLLINE]
Not Active: IC50 [1] | IC50 [2] | IC50 [3] | IC50 [4] | IC50 [5] | Ki [5] | IC50 [6] | IC50 [7] | Ki [7]

CS(=O)(=O)c1ccc([C@@H](O)[C@@H](CO)NC(=O)C(Cl)Cl)cc1 [THIAMPHENICOL]
Not Active: IC50 [1] | IC50 [2] | IC50 [3] | IC50 [4] | IC50 [5] | Ki [5] | IC50 [6] | IC50 [7] | Ki [7]

CCN(CC)CCNC(=O)c1cc(S(C)(=O)=O)ccc1OC [TIAPRIDE]
Not Active: IC50 [1] | IC50 [2] | IC50 [3] | IC50 [4] | IC50 [5] | Ki [5] | IC50 [6] | IC50 [7] | Ki [7]

Clc1ccccc1CN1CCc2sccc2C1 [TICLOPIDINE]
Not Active: IC50 [1] | IC50 [2] | IC50 [3] | IC50 [4] | IC50 [5] | Ki [5] | IC50 [6] | IC50 [7] | Ki [7]

NC1CCN(c2nc3c(cc2F)c(=O)c(C(=O)O)cn3-c2ccc(F)cc2F)C1 (configuration not stated) [TOSUFLOXACIN]
Not Active: IC50 [1] | IC50 [2] | IC50 [3] | IC50 [4] | IC50 [5] | Ki [5] | IC50 [6] | IC50 [7] | Ki [7]
